The assay deals with Recombinant Human ENPP-1 Protein (Homo sapiens (Human), UniProt P22413). As to the kind of experiment: ENPP1 Inhibition Assay. The assay is classed as biochemical. The following applies: substrate thymidine 5′-monophosphate p-nitrophenol ester, absorbance at 405 nm. Here is the method:
1. ENPP1 Inhibition Assay
Materials: • Assay Buffer: 1 mM CaCl2, 0.2 mM ZnCl2, 50 mM Tris, pH 9.0 • Substrate: 8 mM Thymidine 5′-monophosphate p-nitrophenol ester sodium salt (Sigma Cat # T4510) • Enzyme: 5 ng/μL Recombinant Human ENPP-1 Protein (R&D Cat #6136-EN-010) DMSO • 96-well clear assay plates
An eight point serial dilution of drugs was prepared in 10× in assay buffer with the final assay concentrations starting at 10 μM, 3 μM, 1 μM, 0.3 μM . . . 0 μM. A dilution of DMSO was included as a control. The assay plate was set up as follows with each well in duplicate: 81 μL assay buffer+10 μL ENPP1 inhibitor or DMSO+5 μL Substrate+4 μL Enzyme. Both the enzyme and substrate were added to opposite sides of the well to ensure that there was no interaction until all wells had both components. The plate was then centrifuged gently for 10 seconds, followed by an incubation at 37° C. for 45 minutes. The reaction was quantified by measuring absorbance at 405 nm using the Envision.
IC50 values are determined using GraphPad Prism 5 software. The data were entered as an X-Y plot into the software as percent inhibition for each concentration of the drug. The concentration values of the drug were log transformed and the nonlinear regression was carried out using the “sigmoidal dose-response (variable slope)” option within the GraphPad software to model the data and calculate IC50 values. The IC50 values reported are the concentration of drug at which 50% inhibition was reached.
Sequence of Recombinant Human ENPP-1 Protein (P22413 whole entry): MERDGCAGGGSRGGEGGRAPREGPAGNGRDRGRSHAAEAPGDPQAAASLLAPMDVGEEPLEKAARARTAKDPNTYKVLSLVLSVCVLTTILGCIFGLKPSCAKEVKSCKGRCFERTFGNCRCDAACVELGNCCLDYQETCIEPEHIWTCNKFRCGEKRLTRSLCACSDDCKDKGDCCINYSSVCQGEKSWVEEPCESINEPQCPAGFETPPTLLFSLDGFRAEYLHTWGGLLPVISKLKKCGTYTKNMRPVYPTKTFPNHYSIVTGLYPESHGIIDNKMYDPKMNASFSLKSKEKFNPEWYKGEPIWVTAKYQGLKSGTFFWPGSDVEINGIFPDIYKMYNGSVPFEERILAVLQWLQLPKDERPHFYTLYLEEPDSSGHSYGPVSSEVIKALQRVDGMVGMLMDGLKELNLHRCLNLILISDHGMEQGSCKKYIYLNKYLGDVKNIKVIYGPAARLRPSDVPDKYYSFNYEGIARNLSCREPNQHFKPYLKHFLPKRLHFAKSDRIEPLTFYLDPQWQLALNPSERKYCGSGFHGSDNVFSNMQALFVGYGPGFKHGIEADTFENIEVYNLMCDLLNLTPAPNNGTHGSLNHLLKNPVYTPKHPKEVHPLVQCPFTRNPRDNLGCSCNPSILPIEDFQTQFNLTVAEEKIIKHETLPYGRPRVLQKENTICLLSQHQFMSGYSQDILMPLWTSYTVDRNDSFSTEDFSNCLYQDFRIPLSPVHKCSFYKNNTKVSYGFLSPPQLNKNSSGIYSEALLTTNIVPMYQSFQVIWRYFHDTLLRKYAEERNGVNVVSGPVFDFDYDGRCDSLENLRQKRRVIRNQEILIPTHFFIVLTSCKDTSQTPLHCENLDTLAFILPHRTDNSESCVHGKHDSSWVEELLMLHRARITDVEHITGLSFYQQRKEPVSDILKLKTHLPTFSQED
The term IC50 denotes the concentration that inhibits the measured activity by half. Take `COc1ccc(NC(=O)CSc2nc3cc(Cl)ncc3[nH]2)cc1OC` [Compound 3, 2-((6-Chloro-3H-imidazo[4,5-c]pyridin-2-yl)thio)-N-(3,4-dimethoxyphenyl)acetamide]: the IC50 came out at 0.58 µM.

On to `O=C(CSc1nc2cc(Cl)ncc2[nH]1)Nc1ccc2c(c1)OCO2` [Compound 7, N-(benzo[d][1,3]dioxol-5-yl)-2-((6-chloro-1H-imidazo[4,5-c]pyridin-2-yl)thio)acetamide], for which the IC50 is above 50 µM.

As to `COc1ccc(NC(=O)CSc2nc3c(C)cncc3[nH]2)cc1OC` [Compound 9, N-(3,4-dimethoxyphenyl)-2-((7-methyl-1H-imidazo[4,5-c]pyridin-2-yl)thio)acetamide], the IC50 was 4.46 µM.

Regarding `Cc1cncc2[nH]c(SCC(=O)Nc3ccc4c(c3)OCO4)nc12` [Compound 10, N-(benzo[d][1,3]dioxol-5-yl)-2-((7-methyl-1H-imidazo[4,5-c]pyridin-2-yl)thio)acetamide], the IC50 amounted to 50 µM.

With `COc1ccc(NC(=O)C(C)Sc2nc3cnc(Cl)cc3[nH]2)cc1OC` (centres unmarked) [Compound 14, 2-((6-Chloro-1H-imidazo[4,5-c]pyridin-2-yl)thio)-N-(3,4-dimethoxyphenyl)propanamide], the half-maximal inhibitory concentration (IC50) came out at 3.52 µM.

Regarding `COc1ccc(NC(=O)CSc2nc3c(C)cncc3[nH]2)cc1O` [Compound 16, N-(3-hydroxy-4-methoxyphenyl)-2-((7-methyl-1H-imidazo[4,5-c]pyridin-2-yl)thio)acetamide], the IC50 was found to be 2.29 µM.

As to `COc1cc(NC(=O)CSc2nc3c(C)cncc3[nH]2)ccc1O` [Compound 18, N-(4-hydroxy-3-methoxyphenyl)-2-((7-methyl-3H-imidazo[4,5-c]pyridin-2-yl)thio)acetamide], the IC50 worked out at 8.37 µM.

On to `O=C(CSc1nc2cnc(Cl)cc2[nH]1)Nc1cccc(O)c1` [Compound 25, 2-((6-Chloro-1H-imidazo[4,5-c]pyridin-2-yl)thio)-N-(3-hydroxyphenyl)acetamide], for which the IC50 worked out at 7.93 µM.

As for `COc1ccc(NC(=O)CSc2nc3cnc(Cl)cc3[nH]2)cc1F` [Compound 27, 2-((6-Chloro-1H-imidazo[4,5-c]pyridin-2-yl)thio)-N-(3-fluoro-4-methoxyphenyl)acetamide], the IC50 turned out to be 0.4 µM.

On to `COc1cc(NC(=O)CSc2nc3cc(Cl)ncc3[nH]2)ccc1OC(F)F` [Compound 29, 2-((6-Chloro-1H-imidazo[4,5-c]pyridin-2-yl)thio)-N-(4-(difluoromethoxy)-3-methoxyphenyl)acetamide], for which the IC50 is 1.16 µM.

`O=C(CSc1nc2cnc(Cl)cc2[nH]1)Nc1ccc(O)cc1` [Compound 33, 2-((6-chloro-1H-imidazo[4,5-c]pyridin-2-yl)thio)-N-(4-hydroxyphenyl)acetamide]: the IC50 was 7.92 µM.

For `COc1ccc(NC(=O)CSc2nc3cnc(Cl)cc3[nH]2)cc1OC(F)(F)F` [Compound 35, 2-((6-chloro-1H-imidazo[4,5-c]pyridin-2-yl)thio)-N-(4-methoxy-3-(trifluoromethoxy)phenyl)acetamide], the IC50 is 40.7 µM.

With `O=C(CSc1nc2cc(Cl)ncc2[nH]1)Nc1ccc(OC(F)F)cc1` [Compound 40, 2-((6-Chloro-3H-imidazo[4,5-c]pyridin-2-yl)thio)-N-(4-(difluoromethoxy)phenyl)acetamide], the IC50 came out at 33.6 µM.

Turning to `COc1ccc(NC(=O)C(C)Sc2nc3cnc(C(F)(F)F)cc3[nH]2)cc1O` (centres unmarked) [Compound 42, N-(3-Hydroxy-4-methoxyphenyl)-2-((6-(trifluoromethyl)-3H-imidazo[4,5-c]pyridin-2-yl)thio)propanamide], the IC50 was determined as 11.3 µM.

Regarding `COc1c(F)cc(NC(=O)CSc2nc3cnc(C(F)(F)F)cc3[nH]2)cc1F` [Compound 44, N-(3,5-Difluoro-4-methoxyphenyl)-2-((6-(trifluoromethyl)-3H-imidazo[4,5-c]pyridin-2-yl)thio)acetamide], the IC50 stood at 10.2 µM.

In the case of `COc1ccc(NC(=O)CSc2nc3cnc(Cl)c(C)c3[nH]2)cc1O` [Compound 49, 2-((6-Chloro-7-methyl-1H-imidazo[4,5-c]pyridin-2-yl)thio)-N-(3-hydroxy-4-methoxyphenyl)acetamide], the IC50 came out at 0.667 µM.

`COc1ccc(NC(=O)CSc2nc3cnc(Cl)c(C)c3[nH]2)cc1F` [Compound 50, 2-((6-Chloro-7-methyl-1H-imidazo[4,5-c]pyridin-2-yl)thio)-N-(3-fluoro-4-methoxyphenyl)acetamide]: the IC50 turned out to be 5.63 µM.

Take `Cc1c(Cl)ncc2nc(SCC(=O)Nc3ccc(F)c(O)c3)[nH]c12` [Compound 51, 2-((6-Chloro-7-methyl-1H-imidazo[4,5-c]pyridin-2-yl)thio)-N-(4-fluoro-3-hydroxyphenyl)acetamide]: the IC50 worked out at 1.27 µM.

On to `COc1ccc(NC(=O)CSc2nc3cnc(Cl)c(C)c3[nH]2)cc1OC` [Compound 52, 2-((6-Chloro-7-methyl-1H-imidazo[4,5-c]pyridin-2-yl)thio)-N-(3,4-dimethoxyphenyl)acetamide], for which the IC50 amounted to 1.14 µM.

Take `COc1cc2nc(NC(=O)CSc3nc4cc(Cl)ncc4[nH]3)sc2cc1OC` [Compound 54, 2-((6-Chloro-3H-imidazo[4,5-c]pyridin-2-yl)thio)-N-(5,6-dimethoxybenzo[d]thiazol-2-yl)acetamide]: the IC50 is 5.73 µM.

Take `O=C(CSc1nc2cc(C(F)(F)F)ncc2[nH]1)Nc1ccc(OC(F)(F)F)c(O)c1` [Compound 61, N-(3-Hydroxy-4-(trifluoromethoxy)phenyl)-2-((6-(trifluoromethyl)-3H-imidazo[4,5-c]pyridin-2-yl)thio)acetamide]: the IC50 was 22.6 µM.

Take `O=C(CSc1nc2cc(Cl)ncc2[nH]1)Nc1nc2ccccc2s1` [Compound 62, N-(Benzo[d]thiazol-2-yl)-2-((6-chloro-3H-imidazo[4,5-c]pyridin-2-yl)thio)acetamide]: the half-inhibitory concentration (IC50) was found to be 10.9 µM.

With `COc1ccc(NC(=O)CSc2nc3cc(C#N)ncc3[nH]2)cc1O` [Compound 67, 2-((6-Cyano-3H-imidazo[4,5-c]pyridin-2-yl)thio)-N-(3-hydroxy-4-methoxyphenyl)acetamide], the half-maximal inhibitory concentration (IC50) is 0.179 µM.

`N#Cc1cc2nc(SCC(=O)Nc3ccc(F)c(O)c3)[nH]c2cn1` [Compound 69, 2-((6-Cyano-3H-imidazo[4,5-c]pyridin-2-yl)thio)-N-(4-fluoro-3-hydroxyphenyl)acetamide]: the 50% inhibitory concentration (IC50) came to 0.216 µM.

Consider `COc1ccc(NC(=O)CS(=O)(=O)c2nc3cnc(Cl)cc3[nH]2)cc1F` [Compound 70, 2-((6-chloro-1H-imidazo[4,5-c]pyridin-2-yl)sulfonyl)-N-(3-fluoro-4-methoxyphenyl)acetamide], for which the concentration for half-maximal inhibition (IC50) worked out at 30.2 µM.

With `COc1ccc(NC(=O)CSc2nc3cc(Cl)ncc3[nH]2)cn1` [Compound 72, 2-((6-chloro-3H-imidazo[4,5-c]pyridin-2-yl)thio)-N-(6-methoxypyridin-3-yl)acetamide], the IC50 stood at 3.29 µM.

As for `COc1ccc(NC(=O)CSc2nc3c(C)c(C#N)ncc3[nH]2)cc1OC` [Compound 77, 2-((6-Cyano-7-methyl-3H-imidazo[4,5-c]pyridin-2-yl)thio)-N-(3,4-dimethoxyphenyl)acetamide], the IC50 stood at 0.265 µM.

For `Cc1c(C#N)ncc2[nH]c(SCC(=O)Nc3ccc(F)c(O)c3)nc12` [Compound 79, 2-((6-Cyano-7-methyl-3H-imidazo[4,5-c]pyridin-2-yl)thio)-N-(4-fluoro-3-hydroxyphenyl)acetamide], the 50% inhibitory concentration (IC50) worked out at 6.52 µM.

Take `COc1ccc(NC(=O)CSc2nc3cc(Cl)ncc3[nH]2)cc1N` [Compound 82, N-(3-Amino-4-methoxyphenyl)-2-((6-chloro-3H-imidazo[4,5-c]pyridin-2-yl)thio)acetamide]: the half-maximal inhibitory concentration (IC50) came out at 6.02 µM.

`COc1ccc(NC(=O)CSc2nc3cc(Cl)ncc3[nH]2)cc1[N+](=O)[O-]` [Compound 83, 2-((6-Chloro-3H-imidazo[4,5-c]pyridin-2-yl)thio)-N-(4-methoxy-3-nitrophenyl)acetamide]: the IC50 came to 4.55 µM.

As for `COc1cnc(NC(=O)CSc2nc3cc(Cl)ncc3[nH]2)cc1OC` [Compound 85, 2-((6-chloro-1H-imidazo[4,5-c]pyridin-2-yl)thio)-N-(4,5-dimethoxypyridin-2-yl)acetamide], the IC50 was 0.266 µM.

Regarding `COc1ccc(NC(=O)CSc2nc3cc(Cl)ncc3[nH]2)nc1OC` [Compound 87, 2-((6-chloro-1H-imidazo[4,5-c]pyridin-2-yl)thio)-N-(5,6-dimethoxypyridin-2-yl)acetamide], the half-maximal inhibitory concentration (IC50) was found to be 1.98 µM.

`COc1ccc(NC(=O)CSc2nc3cc(Cl)ncc3[nH]2)cc1OCC(F)(F)F` [Compound 89]: the IC50 was 11.3 µM.

In the case of `COc1ccc(NC(=O)CSc2nc3c(C)c(C#N)ncc3[nH]2)cc1F` [Compound 93, 2-((6-Cyano-7-methyl-3H-imidazo[4,5-c]pyridin-2-yl)thio)-N-(3-fluoro-4-methoxyphenyl)acetamide], the half-maximal inhibitory concentration (IC50) was determined as 0.224 µM.

As to `COc1nc(NC(=O)CSc2nc3c(C)c(C#N)ncc3[nH]2)ccc1O` [Compound 96, 2-((6-cyano-7-methyl-3H-imidazo[4,5-c]pyridin-2-yl)thio)-N-(5-hydroxy-6-methoxypyridin-2-yl)acetamide], the IC50 came to 2.06 µM.

These data come from patent US10689376B2, “Substituted-3H-imidazo [4,5-c] pyridine and 1H-pyrrolo[2,3-c]pyridine series of novel ectonucleotide pyrophosphatase/phosphodiesterase-1 (ENPP1) and stimulator for interferon genes (STING) modulators as cancer immunotherapeutics” (Stingray Therapeutics, Inc., priority 2017, dated 2020).
